In series [1] the test system is Hepatocyte. Description: Cytotoxicity against human hepatocytes assessed as reduction in cell viability after 4 hrs by ATP detection based assay.
The subject of series [2] is Hepatocyte. Description: Induction of apoptosis in human hepatocytes assessed as caspase 3/7 activation by caspase-Glo 3/7 assay. The series is classed as cell-based.
Series [3] concerns Hepatocyte. The series is described as follows: Cytotoxicity against human hepatocytes assessed as reduction in cell viability after 24 hrs by LDH release assay. The series is classed as cell-based.
For series [4], the system named is Hepatocyte. The series is described as follows: Cytotoxicity against human hepatocytes assessed as reduction in cell viability after 4 hrs by LDH release assay. The series is classed as cell-based.
Series [5] deals with Hepatocyte. The series is described as follows: Cytotoxicity against human hepatocytes assessed as reduction in cell viability after 24 hrs by ATP detection based assay.
In series [6] the test system is CYP3A4. Description: Induction of CYP3A4 mRNA expression in human hepatocytes at 10 uM after 48 hrs relative to untreated control. The series is classed as ADME, cell-based, Hepatocyte. As to conditions: read-out: FC; call rule not given here.
The target of a further series is CYP2D6 (Homo sapiens, UniProt P10635). The series is described as follows: Time dependent inhibition of CYP2D6 activity in human hepatocytes after 30 mins by liquid chromatography/tandem mass spectroscopy. The class given is ADME, cell-based, Hepatocyte.
Series [7] has as its target CYP3A4 (Homo sapiens, UniProt P08684). Description: Time dependent inhibition of CYP3A4 activity in human hepatocytes after 30 mins by liquid chromatography/tandem mass spectroscopy. The class given is ADME, cell-based, Hepatocyte.
Another series concerns the target T1, CYP2C8 (Homo sapiens, UniProt P10632).
T1 sequence (P10632 whole entry): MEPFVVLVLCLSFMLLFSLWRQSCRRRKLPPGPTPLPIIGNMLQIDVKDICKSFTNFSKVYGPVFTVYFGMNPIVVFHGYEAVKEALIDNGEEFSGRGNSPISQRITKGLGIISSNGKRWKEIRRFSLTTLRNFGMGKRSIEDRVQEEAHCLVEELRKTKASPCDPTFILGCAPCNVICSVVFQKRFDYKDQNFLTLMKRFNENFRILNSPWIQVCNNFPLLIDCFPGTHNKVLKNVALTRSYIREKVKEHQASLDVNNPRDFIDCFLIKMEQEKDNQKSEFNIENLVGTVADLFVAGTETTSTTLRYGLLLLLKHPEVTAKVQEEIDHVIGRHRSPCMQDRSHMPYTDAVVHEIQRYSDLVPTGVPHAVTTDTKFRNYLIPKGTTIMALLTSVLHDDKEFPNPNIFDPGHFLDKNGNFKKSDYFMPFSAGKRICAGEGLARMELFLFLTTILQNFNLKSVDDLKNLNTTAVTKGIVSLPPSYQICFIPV
Description: Time dependent inhibition of CYP2C8 activity in human hepatocytes after 30 mins by liquid chromatography/tandem mass spectroscopy. The class given is ADME, cell-based, Hepatocyte.

In another series the test system is SULT2A1. Description: Induction of SULT2A1 mRNA expression in human hepatocytes at 10 uM after 48 hrs relative to untreated control. The class given is cell-based, Hepatocyte. As to conditions: read-out: FC.
For series [8], the system named is Hepatocyte. Description: Cytotoxicity against human hepatocytes assessed as cytoplasm granulation with vacuoles after 24 hrs at 50 to 100 uM. The series is classed as cell-based.
Series [9] has as its target T2, CYP2B6 (Homo sapiens, UniProt P20813).
T2 sequence (P20813 whole entry): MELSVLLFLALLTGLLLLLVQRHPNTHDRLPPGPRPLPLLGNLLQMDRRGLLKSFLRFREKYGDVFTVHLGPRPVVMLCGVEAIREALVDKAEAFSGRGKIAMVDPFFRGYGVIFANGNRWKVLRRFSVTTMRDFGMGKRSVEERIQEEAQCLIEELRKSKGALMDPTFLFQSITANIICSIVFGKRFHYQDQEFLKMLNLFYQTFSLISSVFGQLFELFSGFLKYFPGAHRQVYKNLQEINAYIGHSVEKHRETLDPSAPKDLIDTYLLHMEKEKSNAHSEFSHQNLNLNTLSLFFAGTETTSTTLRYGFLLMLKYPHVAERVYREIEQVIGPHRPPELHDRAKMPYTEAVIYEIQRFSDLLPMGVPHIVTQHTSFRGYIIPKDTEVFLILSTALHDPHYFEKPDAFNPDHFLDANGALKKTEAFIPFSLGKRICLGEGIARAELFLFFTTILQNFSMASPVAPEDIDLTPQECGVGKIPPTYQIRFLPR
The series is described as follows: Time dependent inhibition of CYP2B6 activity in human hepatocytes after 30 mins by liquid chromatography/tandem mass spectroscopy. The class given is ADME, cell-based, Hepatocyte.

The test system of series [10] is CYP2B6. Description: Induction of CYP2B6 mRNA expression in human hepatocytes at 10 uM after 48 hrs relative to untreated control. The class given is ADME, cell-based, Hepatocyte. As to conditions: read-out: FC.
A further series concerns the target Cytochrome P450 3A4 (Homo sapiens, UniProt P08684). The series is described as follows: Inhibition of CYP3A4 activity in human hepatocytes after 30 mins by liquid chromatography/tandem mass spectroscopy. The class given is ADME, cell-based, Hepatocyte.
Another series addresses Cytochrome P450 2C9 (Homo sapiens, UniProt P11712). The series is described as follows: Inhibition of CYP2C9 activity in human hepatocytes after 30 mins by liquid chromatography/tandem mass spectroscopy. The series is classed as ADME, cell-based, Hepatocyte.
For another series, the target named is CYP2E1 (Homo sapiens, UniProt P05181). The series is described as follows: Time dependent inhibition of CYP2E1 activity in human hepatocytes after 30 mins by liquid chromatography/tandem mass spectroscopy. The class given is ADME, cell-based, Hepatocyte.
The next series has as its target CYP2C9 (Homo sapiens, UniProt P11712). Description: Time dependent inhibition of CYP2C9 activity in human hepatocytes after 30 mins by liquid chromatography/tandem mass spectroscopy. The series is classed as ADME, cell-based, Hepatocyte.
The target in another series is T3, CYP1A2 (Homo sapiens, UniProt P05177).
T3 sequence (P05177 whole entry): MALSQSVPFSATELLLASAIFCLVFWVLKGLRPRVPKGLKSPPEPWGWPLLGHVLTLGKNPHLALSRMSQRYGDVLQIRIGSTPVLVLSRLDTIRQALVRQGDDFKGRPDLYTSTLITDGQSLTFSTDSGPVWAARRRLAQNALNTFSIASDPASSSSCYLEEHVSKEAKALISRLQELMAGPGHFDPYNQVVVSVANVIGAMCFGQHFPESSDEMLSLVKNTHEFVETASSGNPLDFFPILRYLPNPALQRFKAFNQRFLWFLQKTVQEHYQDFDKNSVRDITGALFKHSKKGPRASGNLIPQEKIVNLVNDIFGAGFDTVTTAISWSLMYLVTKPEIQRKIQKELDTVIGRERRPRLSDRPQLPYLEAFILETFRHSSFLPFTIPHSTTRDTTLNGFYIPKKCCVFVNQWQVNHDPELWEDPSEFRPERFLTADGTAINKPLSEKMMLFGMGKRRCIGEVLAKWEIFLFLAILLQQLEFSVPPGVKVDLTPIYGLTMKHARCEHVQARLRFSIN
Description: Time dependent inhibition of CYP1A2 activity in human hepatocytes after 30 mins by liquid chromatography/tandem mass spectroscopy. The class given is ADME, cell-based, Hepatocyte.

The subject of series [11] is Hepatocyte. Description: Cytotoxicity against human hepatocytes assessed as loss of nuclei after 24 hrs at 50 to 100 uM. The series is classed as cell-based.
For a further series, the target named is CYP2C19 (Homo sapiens, UniProt P33261). Description: Time dependent inhibition of CYP2C19 activity in human hepatocytes after 30 mins by liquid chromatography/tandem mass spectroscopy. The class given is ADME, cell-based, Hepatocyte.
The nature of series [12]: Cytotoxicity against human hepatocytes assessed as cell viability after 24 hrs at 100 uM by ATP detection based assay. More on the design: species or system Hepatocyte. As to conditions: read-out: Activity.

Cytochrome P450 2C9, sequence (P11712 whole entry): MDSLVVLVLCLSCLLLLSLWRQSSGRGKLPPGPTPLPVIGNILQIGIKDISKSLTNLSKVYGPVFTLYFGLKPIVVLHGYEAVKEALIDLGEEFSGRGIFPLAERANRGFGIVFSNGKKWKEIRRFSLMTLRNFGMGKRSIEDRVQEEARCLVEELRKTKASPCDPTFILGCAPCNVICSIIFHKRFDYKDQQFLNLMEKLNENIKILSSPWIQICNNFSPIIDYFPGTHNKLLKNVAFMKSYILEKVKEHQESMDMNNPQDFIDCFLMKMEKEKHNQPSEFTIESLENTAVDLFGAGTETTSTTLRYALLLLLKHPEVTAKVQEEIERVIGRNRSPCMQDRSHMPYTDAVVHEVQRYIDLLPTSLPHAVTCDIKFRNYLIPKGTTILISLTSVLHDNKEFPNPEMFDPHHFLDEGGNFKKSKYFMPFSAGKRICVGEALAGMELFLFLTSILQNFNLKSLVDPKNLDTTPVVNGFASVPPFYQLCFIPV
CYP2C9, sequence (P11712 whole entry): as above
CYP2D6, sequence (P10635 whole entry): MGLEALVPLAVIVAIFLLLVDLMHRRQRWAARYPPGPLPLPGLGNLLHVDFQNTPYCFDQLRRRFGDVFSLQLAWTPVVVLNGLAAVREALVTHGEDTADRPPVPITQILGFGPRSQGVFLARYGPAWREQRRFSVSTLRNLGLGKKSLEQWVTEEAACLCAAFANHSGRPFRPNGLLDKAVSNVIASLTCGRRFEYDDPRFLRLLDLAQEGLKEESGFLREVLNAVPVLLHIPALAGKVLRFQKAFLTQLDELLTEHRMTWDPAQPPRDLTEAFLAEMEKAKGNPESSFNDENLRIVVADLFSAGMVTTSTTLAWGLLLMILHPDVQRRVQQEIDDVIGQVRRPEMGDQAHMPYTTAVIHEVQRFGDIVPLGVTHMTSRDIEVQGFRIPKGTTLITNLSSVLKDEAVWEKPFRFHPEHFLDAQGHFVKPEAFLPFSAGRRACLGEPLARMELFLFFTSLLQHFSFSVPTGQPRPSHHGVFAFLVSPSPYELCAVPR
CYP2C19, sequence (P33261 whole entry): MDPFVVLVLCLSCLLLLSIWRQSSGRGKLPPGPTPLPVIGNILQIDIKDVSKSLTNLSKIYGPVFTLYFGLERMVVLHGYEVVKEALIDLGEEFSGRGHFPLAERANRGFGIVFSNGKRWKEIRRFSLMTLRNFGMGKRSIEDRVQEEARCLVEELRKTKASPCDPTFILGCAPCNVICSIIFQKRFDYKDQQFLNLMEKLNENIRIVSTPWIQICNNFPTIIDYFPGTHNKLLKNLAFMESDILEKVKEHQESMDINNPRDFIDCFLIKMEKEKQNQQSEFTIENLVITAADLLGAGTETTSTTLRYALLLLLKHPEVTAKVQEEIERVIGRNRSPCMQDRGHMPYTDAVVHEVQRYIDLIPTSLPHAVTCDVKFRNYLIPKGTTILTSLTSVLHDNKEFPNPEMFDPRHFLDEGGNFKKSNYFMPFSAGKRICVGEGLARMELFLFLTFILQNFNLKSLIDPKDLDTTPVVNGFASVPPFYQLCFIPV
Cytochrome P450 3A4, sequence (P08684 whole entry): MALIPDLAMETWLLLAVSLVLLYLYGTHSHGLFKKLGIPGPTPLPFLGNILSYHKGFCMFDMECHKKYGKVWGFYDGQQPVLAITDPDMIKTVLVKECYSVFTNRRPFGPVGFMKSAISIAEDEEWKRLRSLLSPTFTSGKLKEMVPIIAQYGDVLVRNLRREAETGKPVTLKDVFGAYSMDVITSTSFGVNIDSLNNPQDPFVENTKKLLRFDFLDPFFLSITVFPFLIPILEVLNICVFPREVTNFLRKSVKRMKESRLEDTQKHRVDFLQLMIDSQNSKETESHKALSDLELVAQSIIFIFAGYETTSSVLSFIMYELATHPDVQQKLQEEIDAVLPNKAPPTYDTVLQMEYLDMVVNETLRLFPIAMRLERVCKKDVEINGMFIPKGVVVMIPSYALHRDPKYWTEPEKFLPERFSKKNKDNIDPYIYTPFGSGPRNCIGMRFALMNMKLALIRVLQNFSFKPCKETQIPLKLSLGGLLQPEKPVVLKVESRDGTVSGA
CYP3A4 (Homo sapiens, UniProt P08684), sequence (P08684 whole entry): as above
CYP2E1, sequence (P05181 whole entry): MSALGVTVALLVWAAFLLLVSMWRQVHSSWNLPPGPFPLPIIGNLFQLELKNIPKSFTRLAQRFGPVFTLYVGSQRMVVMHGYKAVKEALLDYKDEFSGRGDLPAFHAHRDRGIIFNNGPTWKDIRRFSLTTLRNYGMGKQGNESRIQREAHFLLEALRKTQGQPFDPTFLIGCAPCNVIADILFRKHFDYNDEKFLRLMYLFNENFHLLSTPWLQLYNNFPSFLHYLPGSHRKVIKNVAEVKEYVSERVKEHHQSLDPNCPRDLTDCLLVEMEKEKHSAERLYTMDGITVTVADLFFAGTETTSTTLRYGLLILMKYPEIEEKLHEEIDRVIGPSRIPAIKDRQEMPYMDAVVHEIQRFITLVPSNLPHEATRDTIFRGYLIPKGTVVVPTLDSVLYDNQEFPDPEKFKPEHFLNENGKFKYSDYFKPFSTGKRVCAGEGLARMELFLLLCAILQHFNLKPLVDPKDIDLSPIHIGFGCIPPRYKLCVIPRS

With `CC/C(=C(\c1ccccc1)c1ccc(OCCN(C)C)cc1)c1ccccc1` [TAMOXIFEN], the EC50 in the series on Hepatocyte [1] was 71.4 µM; in the series on Hepatocyte [3], “Not Active”; in the series on Hepatocyte [4], 67.6 µM; in the series with Hepatocyte [5], 34.4 µM. In the series with Hepatocyte [2], the Activity entry was “Toxic”.

For `CC(C)c1cc2c(c(O)c1O)[C@@]1(C(=O)O)CCCC(C)(C)[C@@H]1CC2` [CARNOSIC ACID], the fold induction at 48 h, 10 µM worked out at 13.9 in the series with CYP3A4 [6], 2.4 with SULT2A1 and 4.5 with CYP2B6 [10]. The EC50 in the series on Hepatocyte [1] is 95.7 µM; in the series with Hepatocyte [3], “Not Active”; in the series with Hepatocyte [5], 94.8 µM. The Activity entry in the series on Hepatocyte [2] is reported as “Non-toxic”; in the series on Hepatocyte [8], “Toxic”; in the series with Hepatocyte [11], “Toxic”. Moreover, the inhibition at 0.5 h against CYP2D6, against CYP3A4 [7], on CYP2C8, at CYP2B6 [9], on CYP2E1 and against CYP2C9 was less than 11% each time. Besides, the inhibition at 0.5 h at CYP1A2 and at CYP2C19 was less than 11% each time. In addition, the Ki at Cytochrome P450 3A4 is 4.3 µM; on Cytochrome P450 2C9 it was 9.2 µM. Moreover, the viability at 24 h, 100 µM in series [12] was less than 10%.

The values are drawn from ChEMBL document CHEMBL3526111, “In vitro hepatotoxicity and cytochrome P450 induction and inhibition characteristics of carnosic acid, a dietary supplement with antiadipogenic properties” (Drug Metab Dispos, 2012).
